One molecule from ChEMBL document CHEMBL5058641, “Data for DCP probe TP-050” (2022) can be followed below.

For test [1], the target named is Delta-type opioid receptor (Homo sapiens, UniProt P41143). As to the kind of experiment: OPRD1 Eurofins SafetyScan (Receptor).
Test [2] concerns the target 5-hydroxytryptamine receptor 1E (Homo sapiens) (UniProt P28566). The conditions noted are these: Compound concentration 10.0 uM.

Delta-type opioid receptor, sequence (P41143 whole entry): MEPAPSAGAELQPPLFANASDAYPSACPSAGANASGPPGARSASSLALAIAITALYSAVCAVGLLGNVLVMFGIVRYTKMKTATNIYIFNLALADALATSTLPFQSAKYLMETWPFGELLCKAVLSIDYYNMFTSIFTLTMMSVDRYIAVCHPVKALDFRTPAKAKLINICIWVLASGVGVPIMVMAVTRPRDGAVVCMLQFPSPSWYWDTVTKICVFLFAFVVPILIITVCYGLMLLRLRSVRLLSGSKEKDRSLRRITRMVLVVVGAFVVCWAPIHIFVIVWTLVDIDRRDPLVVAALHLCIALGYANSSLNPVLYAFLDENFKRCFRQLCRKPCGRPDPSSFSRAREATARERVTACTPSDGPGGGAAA
5-hydroxytryptamine receptor 1E (Homo sapiens), sequence (P28566 whole entry): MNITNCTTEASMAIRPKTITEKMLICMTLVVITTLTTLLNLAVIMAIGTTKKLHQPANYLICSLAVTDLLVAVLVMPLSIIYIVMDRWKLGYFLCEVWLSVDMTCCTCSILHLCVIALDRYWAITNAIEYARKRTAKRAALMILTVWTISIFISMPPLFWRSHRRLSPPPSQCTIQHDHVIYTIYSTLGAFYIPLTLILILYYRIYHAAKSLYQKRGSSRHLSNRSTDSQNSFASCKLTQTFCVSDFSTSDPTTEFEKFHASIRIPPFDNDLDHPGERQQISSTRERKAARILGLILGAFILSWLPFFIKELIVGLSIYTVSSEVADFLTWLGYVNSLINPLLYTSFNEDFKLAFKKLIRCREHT

The EC50 is the midpoint of the concentration-response curve. A higher EC50 goes with weaker potency. In general, IC50 refers to the concentration at which inhibition is half-maximal. As a reminder, the inhibition is the change of the read-out against control, counted positive when it falls. As for `Cc1cn([C@H](C)CC#N)c(=O)c2cc(Cn3nc(C(F)F)cc3Cl)nn12`, in test [1], the EC50 is > 10 µM and the concentration for half-maximal inhibition (IC50) was > 10 µM. Also, the inhibition in test [2] was 6.65%.
